Consider 17 molecules from US20230011869A1 (Hoffmann-La Roche Inc., priority 2018, published 2023).

The subject of the test is Acinetobacter baumannii ATCC17978. Briefly: Antimicrobial susceptibility testing: 90% growth inhibitory concentration (IC90) determination, Iso-Sensitest broth. The class given is cell-based. A digest of the protocol: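 A. baumannii ATCC17978 grown in Iso-Sensitest broth across 10 compound concentrations at 35±2 °C.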
Where [1] appears, read: Acinetobacter baumannii, ATCC17978, 16 h, read-out: ATCC17978 IC90, 90% growth inhibitory concentration, Acinetobacter baumannii ATCC17978, Iso-Sensitest broth, OD 600 nm over 16 h.
The mark [2] stands for this setting: 90% growth inhibitory concentration, Acinetobacter baumannii ATCC17978, Iso-Sensitest broth, OD 600 nm over 16 h, read-out: ATCC17978 IC90.

SMILES strings stand for the structures. Structures can show the parent of a compound that is named as a salt. Where two headings read alike, the source gives them in different places.

In the case of `Cc1cc(Nc2nccn3c(-c4ccc(OC(F)F)cc4)cnc23)ccc1C(=O)N1CCN(C(=O)N2CCNC(CN)C2)CC1` (centres unmarked) [Example 500, [4-[3-(aminomethyl)piperazine-1-carbonyl]piperazin-1-yl]-[4-[[3-[4-(difluoromethoxy)phenyl]imi-dazo[1,2-a]pyrazin-8-yl]amino]-2-methylphenyl]methanone; for-mic acid], under setting [1], the IC90 came to 390 nM. Regarding `Cc1cc(Nc2nccn3c(-c4ccc(OC(F)F)cc4)cnc23)ccc1C(=O)N1CCN(C(=O)C2C=CNCC2)CC1` (centres unmarked) [Example 501, [4-[[3-[4-(difluoromethoxy)phenyl]imi-dazo[1,2-a]pyrazin-8-yl]amino]-2-methylphenyl]-[4-(1,2,3,4-tetrahydropyridine-4-carbonyl)piperazin-1-yl]methanone; hydrochloride], under setting [1], the IC90 was 410 nM. For the molecule `Cc1cc(Nc2nccn3c(-c4ccc(OC(F)F)cc4)cnc23)ccc1C(=O)N1CCN(C(=O)C2CCNCC2F)CC1` (centres unmarked) [Example 502, [4-[[3-[4-(difluoromethoxy)phenyl]imi-dazo[1,2-a]pyrazin-8-yl]amino]-2-methylphenyl]-[4-(3-fluoropiperidine-4-carbonyl)piperazin-1-yl]methanone; hydrochloride], the IC90 under setting [1] worked out at 470 nM. With `Cc1cc(Nc2nccn3c(-c4ccc(OC(F)F)cc4)cnc23)ccc1C(=O)N1CCN(C(=O)[C@@H]2CCNC[C@H]2O)CC1` [Example 503, [4-[[3-[4-(difluoromethoxy)phenyl]imi-dazo[1,2-a]pyrazin-8-yl]amino]-2-methylphenyl]-[4-[(3S,4R)-3-hydroxypiperidine-4-carbonyl]piperazin-1-yl]methanone], under setting [1], the IC90 was determined as 470 nM. For the molecule `Cc1cc(Nc2nccn3c(-c4ccc(OCC#N)c(F)c4F)cnc23)ccc1C(=O)N1CCN(C(=O)C2CNC2)CC1` [Example 504, 2-[4-[8-[4-[4-(azetidine-3-carbonyl)piperazine-1-carbonyl]-3-methylanilino]imidazo[1,2-a]pyrazin-3-yl]-2,3-difluorophenoxy]acetonitrile; formic acid], the IC90 under setting [2] turned out to be 490 nM. With `Cc1cc(Nc2nccn3c(-c4ccc(OC(F)F)cc4)cnc23)ccc1C(=O)N1CCN(C(=O)N2CCNCC2CO)CC1` (centres unmarked) [Example 505, [4-[[3-[4-(difluoromethoxy)phenyl]imi-dazo[1,2-a]pyrazin-8-yl]amino]-2-methylphenyl]-[4-[2-(hydroxymethyl)piperazine-1-carbonyl]piperazin-1-yl]methanone], under setting [1], the IC90 is 500 nM. As to `Cc1cc(Nc2nccn3c(-c4ccc(OC(F)F)cc4)cnc23)ccc1C(=O)N1CCN(C(=O)C2(C)CCNCC2)CC1` [Example 506, [4-[[3-[4-(difluoromethoxy)phenyl]imi-dazo[1,2-a]pyrazin-8-yl]amino]-2-methylphenyl]-[4-(4-methylpiperidine-4-carbonyl)piperazin-1-yl]methanone; hydrochloride], the IC90 under setting [1] came out at 510 nM. As to `Cc1cc(Nc2nccn3c(-c4ccc(OC(F)F)cc4)cnc23)ccc1C(=O)N1CCN(C(=O)[C@H]2CCNC[C@@H]2O)CC1` [Example 507, [4-[[3-[4-(difluoromethoxy)phenyl]imi-dazo[1,2-a]pyrazin-8-yl]amino]-2-methylphenyl]-[4-[(3R,4S)-3-hydroxypiperidine-4-carbonyl]piperazin-1-yl]methanone], under setting [1], the IC90 was 510 nM. On the same count and under the same terms, next, `Cc1cc(Nc2nccn3c(-c4ccc(OC(F)F)cc4)cnc23)ccc1C(=O)N1CCN(C(=O)[C@H]2CNCCN2)CC1` [Example 508, [4-[[3-[4-(difluoromethoxy)phenyl]imi-dazo[1,2-a]pyrazin-8-yl]amino]-2-methylphenyl]-[4-[(2R)-piperazine-2-carbonyl]piperazin-1-yl]methanone; hydrochloride]: 530 nM. On the same count and under the same terms, next, `Cc1cc(Nc2nccn3c(-c4ccc(OC(F)F)cc4)cnc23)ccc1C(=O)N1CCN(C(=O)C2(N)CCNCC2)CC1` [Example 509, [4-(4-aminopiperidine-4-carbonyl)piperazin-1-yl]-[4-[[3-[4-(difluoromethoxy)phenyl]imi-dazo[1,2-a]pyrazin-8-yl]amino]-2-methylphenyl]methanone; hy-drochloride]: 540 nM.

On to `CCc1cc(Nc2nccn3c(-c4ccc(OCC#N)c(F)c4F)cnc23)ccc1C(=O)N1CCN(C(=O)[C@@H]2C[C@@H](O)CN2)CC1` [Example 510, 2-[4-[8-[3-ethyl-4-[4-[(2S,4R)-4-hydroxypyrrolidine-2-carbonyl]piperazine-1-carbonyl]annilino]imidazo[1,2-a]pyrazin-3-yl]-2,3-difluorophenoxy]acetonitrile; formic acid], for which, under setting [2], the IC90 was determined as 550 nM. For `Cc1cc(Nc2nccn3c(-c4ccc(OC(F)F)cc4)cnc23)ccc1C(=O)N1CCN(C(=O)[C@H]2CCNC[C@H]2O)CC1` [Example 511, [4-[[3-[4-(difluoromethoxy)phenyl]imi-dazo[1,2-a]pyrazin-8-yl]amino]-2-methylphenyl]-[4-[(3S,4S)-3-hydroxypiperidine-4-carbonyl]piperazin-1-yl]methanone], the IC90 under setting [1] worked out at 560 nM. As for `Cc1cc(Nc2nccn3c(-c4ccc(OC(F)F)cc4)cnc23)ccc1C(=O)N1CCN(C(=O)[C@H]2NCC[C@H]2O)CC1` [Example 512, [4-[[3-[4-(difluoromethoxy)phenyl]imi-dazo[1,2-a]pyrazin-8-yl]amino]-2-methylphenyl]-[4-[(2S,3R)-3-hydroxypyrrolidine-2-carbonyl]piperazin-1-yl]methanone; hydrochloride], under setting [1], the IC90 turned out to be 570 nM. In the case of `Cc1cc(Nc2nccn3c(-c4ccc(OC(F)F)cc4)cnc23)ccc1C(=O)N1CCN(C(=O)[C@@H](N)CCCN)CC1` [Example 513, (2S)-2,5-diamino-1-[4-[4-[[3-[4-(difluoromethoxy)phenyl]imi-dazo[1,2-a]pyrazin-8-yl]amino]-2-methylbenzoyl]piperazin-1-yl]pentan-1-one; hydrochloride], the IC90 under setting [1] was 610 nM. As to `COC(=O)C[C@H](N)C(=O)N1CCN(C(=O)c2ccc(Nc3nccn4c(-c5ccc(OC(F)F)cc5)cnc34)cc2C)CC1` [Example 514, methyl (3S)-3-amino-4-[4-[4-[[3-[4-(difluoromethoxy)phenyl]imi-dazo[1,2-a]pyrazin-8-yl]amino]-2-methylbenzoyl]piperazin-1-yl]-4-oxobutanoate; hydrochloride], under setting [1], the IC90 amounted to 630 nM. Take `COc1ccc(-c2cnc3c(Nc4ccc(C(=O)N5CCN(C(=O)N6CCN[C@H](C(=O)O)C6)CC5)c(C)c4)nccn23)c(F)c1F` [Example 515, (2S)-4-[4-[4-[[3-(2,3-difluoro-4-methoxyphenyl)imidazo[1,2-a]pyrazin-8-yl]amino]-2-methylbenzoyl]piperazine-1-carbonyl]piperazine-2-carboxylic acid; formic acid]: under setting [1], the IC90 came out at 650 nM.

With `Cc1cc(Nc2nccn3c(-c4ccc(OC(F)F)cc4)cnc23)ccc1C(=O)N1CCN(C(=O)[C@@H]2CCNC[C@@H]2O)CC1` [Example 516, [4-[[3-[4-(difluoromethoxy)phenyl]imi-dazo[1,2-a]pyrazin-8-yl]amino]-2-methylphenyl]-[4-[(3R,4R)-3-hydroxypiperidine-4-carbonyl]piperazin-1-yl]methanone], the IC90 under setting [1] stood at 650 nM.
